Test results from patent publication US6140504A, “Substituted intermediate compounds for the preparation of n-[(aminoiminomethyl or aminomethyl)phenyl]propyl amides” (Aventis Pharmaceuticals Products Inc., priority 2000, dated 2000).

biological target: thrombin (Homo sapiens, UniProt P00734); experiment: Enzyme assay, inhibition of thrombin using purified enzyme (chromogenic peptide-p-nitroanilide substrate); assay type: biochemical; conditions: apparent Ki via Cheng-Prusoff from IC50; room temperature, 1 nM enzyme
Protocol: All enzyme as says are carried out at room temperature in 96-well microtiter plates using a final enzyme concentration of 1 nM. The concentrations of factor Xa and thrombin are determined by active site titration and the concentrations of all other enzymes are based on the protein concentration supplied by the manufacturer. Compounds according to the invention are dissolved in DMSO, diluted with their respective buffers and assayed at a maximal final DMSO concentration of 1.25%. […] The enzyme reactions are initiated by the addition of substrate and the color developed from the hydrolysis of the peptide-p-nitroanilide substrates is monitored continuously for 5 minutes at 405 nm on a Vmax microplate reader (Molecular Devices). Under these conditions, less than 10% of the substrate is utilized in all assays. […] The apparent Ki values are then determined according to the Cheng-Prusoff equation (IC50=Ki[1+[S]J/Km]) assuming competitive inhibition kinetics.

Ki [nM]	SMILES
477	CC(=O)OCC(Cc1cccc(C(=N)N)c1)C(/C=C/c1ccccc1)NC(=O)c1ccc(-c2ccccc2)cc1 (stereo not drawn) [Compound 45]
1230	COc1ccc(-c2ccc(C(=O)NC(CCc3ccccc3)C(COC(C)=O)Cc3cccc(C(=N)N)c3)cc2)cc1OC (stereo not drawn) [Compound 167]
2710	CN(C)Cc1cccc(-c2ccc(C(=O)NC(Cc3ccccc3)C(CO)Cc3cccc(C(=N)N)c3)cc2)c1 (stereo not drawn) [Compound 184]

biological target: factor Xa (Homo sapiens, UniProt P00742); experiment: Enzyme assay, inhibition of factor Xa using purified enzyme (chromogenic peptide-p-nitroanilide substrate); assay type: biochemical; conditions: apparent Ki via Cheng-Prusoff from IC50; room temperature, 1 nM enzyme
Protocol: (§1) All enzyme as says are carried out at room temperature in 96-well microtiter plates using a final enzyme concentration of 1 nM. The concentrations of factor Xa and thrombin are determined by active site titration and the concentrations of all other enzymes are based on the protein concentration supplied by the manufacturer. Compounds according to the invention are dissolved in DMSO, diluted with their respective buffers and assayed at a maximal final DMSO concentration of 1.25%. Compound dilutions are added to wells containing buffer and enzyme and pre-equilibrated for between 5 and 30 minutes. The enzyme reactions are initiated by the addition of substrate and the color developed from the hydrolysis of the peptide-p-nitroanilide substrates is monitored continuously for 5 minutes at 405 nm on a Vmax microplate reader (Molecular Devices). Under these conditions, less than 10% of the substrate is utilized in all assays. […] The apparent Ki values are then determined according to the Cheng-Prusoff equation (IC50=Ki[1+[S]J/Km]) assuming competitive inhibition kinetics.

Chain of factor Xa (P00742 235-488 limits assumed): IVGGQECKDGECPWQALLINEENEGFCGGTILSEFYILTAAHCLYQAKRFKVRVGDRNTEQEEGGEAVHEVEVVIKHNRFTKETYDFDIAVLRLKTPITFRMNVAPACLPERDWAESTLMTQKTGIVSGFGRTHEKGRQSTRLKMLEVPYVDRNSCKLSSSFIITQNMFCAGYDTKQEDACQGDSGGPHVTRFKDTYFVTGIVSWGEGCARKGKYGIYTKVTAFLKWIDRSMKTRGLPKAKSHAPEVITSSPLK
Chain of factor Xa (P00742 41-179 partner limits assumed): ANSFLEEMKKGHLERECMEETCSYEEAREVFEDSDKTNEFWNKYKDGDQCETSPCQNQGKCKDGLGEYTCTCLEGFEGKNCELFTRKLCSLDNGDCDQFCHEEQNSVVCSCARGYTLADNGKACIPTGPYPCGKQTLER

Ki [nM]	SMILES
94	CC(=O)OCC(Cc1cccc(C(=N)N)c1)C(/C=C/c1ccccc1)NC(=O)c1ccc(-c2ccccc2)cc1 (stereo not drawn) [Compound 45]
19	COc1ccc(-c2ccc(C(=O)NC(CCc3ccccc3)C(COC(C)=O)Cc3cccc(C(=N)N)c3)cc2)cc1OC (stereo not drawn) [Compound 167]
27	CN(C)Cc1cccc(-c2ccc(C(=O)NC(Cc3ccccc3)C(CO)Cc3cccc(C(=N)N)c3)cc2)c1 (stereo not drawn) [Compound 184]

biological target: T1, trypsin (Bos taurus, UniProt P00760); experiment: Enzyme assay, inhibition of trypsin using purified enzyme (chromogenic peptide-p-nitroanilide substrate); assay type: biochemical; conditions: apparent Ki via Cheng-Prusoff from IC50; room temperature, 1 nM enzyme
T1 construct: factor Xa, thromb in, trypsin; purchased
T1 sequence (P00760 24-246): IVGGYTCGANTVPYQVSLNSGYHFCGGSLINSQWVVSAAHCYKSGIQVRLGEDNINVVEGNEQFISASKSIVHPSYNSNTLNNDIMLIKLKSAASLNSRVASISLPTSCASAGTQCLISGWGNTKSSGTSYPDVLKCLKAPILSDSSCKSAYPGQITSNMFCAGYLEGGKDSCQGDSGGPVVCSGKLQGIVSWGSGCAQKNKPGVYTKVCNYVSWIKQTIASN
Protocol: as §1

Ki [nM]	SMILES
129	CC(=O)OCC(Cc1cccc(C(=N)N)c1)C(/C=C/c1ccccc1)NC(=O)c1ccc(-c2ccccc2)cc1 (stereo not drawn) [Compound 45]
46	COc1ccc(-c2ccc(C(=O)NC(CCc3ccccc3)C(COC(C)=O)Cc3cccc(C(=N)N)c3)cc2)cc1OC (stereo not drawn) [Compound 167]
1720	CN(C)Cc1cccc(-c2ccc(C(=O)NC(Cc3ccccc3)C(CO)Cc3cccc(C(=N)N)c3)cc2)c1 (stereo not drawn) [Compound 184]
